Converted amounts (≈) assume the structure as drawn. Where two headings read alike, the source gives them in different places.
Assay: Solubility of the crystalline forms in methylcyclohexane (Mullin method)
Type: physicochemical
Details: for solubility: methylcyclohexane, organic solvent or mixture, thermodynamic from solid, read-out: Solubility Concentration; for solubility / Solubility Concentration: at equilibrium; for Thermodynamic stability compared with form I: inferred from the lower solubility in methylcyclohexane, 10 °C to 70 °C
Description: The solubility of the 2 crystalline forms of rimonabant in the same solvent was also measured. The method used is described in Measurement of Solubility in J. W. Mullin. Crystallization: 3rd edition, Ipswich (GB): Butterworth-Heinemann, 1993, p. 105.
The measurements were carried out for each of the crystalline forms, in solution in methylcyclohexane at temperatures varying from 10° C. to 70° C. At equilibrium, for each temperature, the undissolved crystalline form is characterized by infrared spectrography, in particular by its main bands.

## Cc1c(C(=O)NN2CCCCC2)nn(-c2ccc(Cl)cc2Cl)c1-c1ccc(Cl)cc1 [Form I, N-Piperidino-5-(4-chlorophenyl)-1-(2,4-dichlorophenyl)-4-methyl-3-pyrazolecarboxamide, reference compound]
10 °C, in methylcyclohexane, 10.00 °C
  solubility: 4.86 mg/mL (≈ 10.5 mM)
20 °C, in methylcyclohexane, 20.00 °C
  solubility: 6.92 mg/mL (≈ 14.9 mM)
30 °C, in methylcyclohexane, 30.00 °C
  solubility: 9.3 mg/mL (≈ 20.1 mM)
40 °C, in methylcyclohexane, 40.00 °C
  solubility: 13.7 mg/mL (≈ 29.5 mM)
50 °C, in methylcyclohexane, 50.00 °C
  solubility: 20.4 mg/mL (≈ 44 mM)
60 °C, in methylcyclohexane, 60.00 °C
  solubility: 31.2 mg/mL (≈ 67.3 mM)
70 °C, in methylcyclohexane, 70.00 °C
  solubility: 52.4 mg/mL (≈ 113 mM)

## Cc1c(C(=O)NN2CCCCC2)nn(-c2ccc(Cl)cc2Cl)c1-c1ccc(Cl)cc1 [Form II, N-piperidino-5-(4-chlorophenyl)-1-(2,4-dichlorophenyl)-4-methyl-3-pyrazolecarboxamide]
In methylcyclohexane, 10.00 °C
  Solubility Concentration: 4.50 mg/mL (≈ 9.7 mM)
In methylcyclohexane, 20.00 °C
  Solubility Concentration: 6.60 mg/mL (≈ 14.2 mM)
In methylcyclohexane, 30.00 °C
  Solubility Concentration: 9.20 mg/mL (≈ 19.8 mM)
In methylcyclohexane, 40.00 °C
  Solubility Concentration: 12.60 mg/mL (≈ 27.2 mM)
In methylcyclohexane, 50.00 °C
  Solubility Concentration: 19.00 mg/mL (≈ 41 mM)
In methylcyclohexane, 60.00 °C
  Solubility Concentration: 29.20 mg/mL (≈ 63 mM)
In methylcyclohexane, 70.00 °C
  Solubility Concentration: 42.00 mg/mL (≈ 90.6 mM)
In methylcyclohexane, all temperatures between 10 °C and 70 °C
  Solubility compared with form I: less soluble
Listed as crystalline form II of rimonabant
  Thermodynamic stability compared with form I: stability greater than that of form I
Listed as rimonabant form II
  Thermodynamic stability compared with form I: thermodynamically more stable than rimonabant form I
